Data reported in patent publication US8518964B2, “Tricyclic compounds useful as inhibitors of kinases” (Merck Sharp & Dohme Corp., priority 2006, dated 2013).

target: T1, IKKβ (Homo sapiens, UniProt O14920); assay: Homogenous Time Resolved Fluorescence (HTRF) assay for IKK inhibitory activity; assay type: biochemical; details: read-out: IKKβIC50
T1 construct: His; made in house; host or cells: SF9 insect cells (baculovirus, pVL1393 transfer vector)
T1 sequence (O14920 1-756): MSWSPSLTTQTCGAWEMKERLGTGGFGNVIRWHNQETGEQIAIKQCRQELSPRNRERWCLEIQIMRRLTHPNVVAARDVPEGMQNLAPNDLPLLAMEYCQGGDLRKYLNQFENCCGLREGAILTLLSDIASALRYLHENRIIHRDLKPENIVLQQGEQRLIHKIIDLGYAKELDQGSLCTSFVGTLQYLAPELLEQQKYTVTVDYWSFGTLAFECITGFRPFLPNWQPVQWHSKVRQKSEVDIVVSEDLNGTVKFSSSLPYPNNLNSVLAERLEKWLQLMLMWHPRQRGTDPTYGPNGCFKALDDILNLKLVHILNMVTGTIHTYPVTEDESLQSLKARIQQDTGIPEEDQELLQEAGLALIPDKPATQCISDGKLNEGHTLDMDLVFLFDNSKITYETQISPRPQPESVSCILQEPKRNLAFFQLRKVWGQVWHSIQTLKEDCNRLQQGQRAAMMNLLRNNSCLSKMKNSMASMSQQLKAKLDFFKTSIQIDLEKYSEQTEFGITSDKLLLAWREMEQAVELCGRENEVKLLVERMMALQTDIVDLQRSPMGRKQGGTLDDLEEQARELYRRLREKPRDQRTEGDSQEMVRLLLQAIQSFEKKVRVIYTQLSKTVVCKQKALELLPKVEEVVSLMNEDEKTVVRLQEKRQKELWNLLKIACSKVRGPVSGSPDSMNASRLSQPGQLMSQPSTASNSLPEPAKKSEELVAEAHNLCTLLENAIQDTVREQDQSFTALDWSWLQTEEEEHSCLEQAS
Description: Homogenous Time Resolved Fluorescence (HTRF) Assay for IKK Inhibitory Activity.
This enzyme assay monitors the inhibitory potency of the compounds of Formula I and II to block the catalytic activity of IKKα and IKKβ in vitro. The full-length coding sequences of IKKα and IKKβ are subcloned into the appropriate site of pVL1393 (Pharmingen) to construct a baculovirus transfer vector. Recombinant baculovirus was generated from vector-transfected SF9 cells (BaculoGold™, Invitrogen), cloned, amplified and used to infect SF9 cells for protein production. Recombinant His-tagged IKKα and IKKβ are isolated from the Baculovirus-infected SF9 cells expressing the fusion protein.
An HTRF assay in a 384-well format established on a Biomek FX is used to test the inhibitory activity of compounds of Formula I. The peptide substrate, biotin-DRHDSGLDSMKDE (SEQ. ID.: 1) used to assay IKKβ activity spans residues 28 to 40 of IκBα and was custom synthesized (Synpep). A biotinylated peptide that spans residues 21 to 40 of Iκbα, […] (SEQ. ID.: 2), was used as substrate for IKKα. The assay conditions used to test inhibitory activity of compounds against IKKβ comprises 110 nM recombinant enzyme, 150 nM peptide substrate, 6 μM ATP, 10% (v/v) DMSO, 15 mM MgCl2, 2 mM DTT, and 50 mM Tris/HCl at a pH of 7.5. For IKKα, the reaction mixture comprises 125 nM recombinant enzyme, 400 nM peptide substrate, 6 μM ATP, 10% (v/v) DMSO, 15 mM MgCl2, 2 mM DTT, and 50 mM Tris/HCl at a pH of 7.5. The kinase reaction proceeds for 20 and 35 min for IKKα and IKKβ respectively and then it is quenched by the addition of EDTA to a final concentration of 20 mM. Following completion of the kinase assay, 5 μL of the reaction is quantified by HTRF with a 5 μL detection mix comprising 40 mM HEPES, 100 mM KF, 27.7 nM Streptavidin-tagged-XL665-XLent (CIS-Bio international), 0.3 nM anti-phospho-IκBα mAb (Cell signaling), 1 nM anti-phospho peptide antibody conjugated to Eu (CIS-Bio international). Following excitation at 330 nm, the 665 nm/615 nm emission ratio is measured after a 2-hour incubation at room temperature to quantify the FRET signal.

Structure (SMILES)	IC50 [nM]
NC(=O)c1cnc(N)c2c1sc1c(Cl)cccc12 [Example 3, 1-Amino-6-chloro[1]benzothieno[3,2-c]pyridine-4-carboxamide]	≤ 1000
NC(=O)c1cnc(N)c2c1sc1c(-c3ccccc3)cccc12 [Example 4, 1-Amino-6-phenyl[1]benzothieno[3,2-c]pyridine-4-carboxamide]	≤ 1000
NC(=O)c1cnc(N)c2c1[nH]c1cc(C(F)(F)F)ccc12 [Example 5, 1-Amino-7-(trifluoromethyl)-5H-pyrido[4,3-b]indole-4-carboxamide]	≤ 100
NC(=O)c1cnc(N)c2c1[nH]c1ccc(F)cc12 [Example 6, 1-Amino-8-fluoro-5H-pyrido[4,3-b]indole-4-carboxamide]	≤ 1000

Other lines, results leading:

IC50 [nM]	Structure (SMILES)
≤ 1000	CCCCNc1ncc(C(N)=O)c2[nH]c3ccc(F)cc3c12 [Example 8, 1-(Butylamino)-8-fluoro-5H-pyrido[4,3-b]indole-4-carboxamide]
≤ 500	NC(=O)c1cnc(N2CCC3(CC2)OCc2ccccc23)c2c1[nH]c1ccc(F)cc12 [Example 9, 8-Fluoro-1-(1′H,3H-spiro[2-benzofuran-1,4′-piperidin]-1′-yl)-5H-pyrido[4,3-b]indole-4-carboxamide]
≤ 1000	NC(=O)c1cnc(N)c2c1[nH]c1ccc(Br)cc12 [Example 11, 1-Amino-8-bromo-5H-pyrido[4,3-b]indole-4-carboxamide]
≤ 500	NC(=O)c1cnc(N)c2c1sc1cc(/C=C/c3ccc(F)cc3)ccc12 [Example 16, 1-Amino-7-[(E)-2-(4-fluorophenyl)vinyl][1]benzothieno[3,2-c]pyridine-4-carboxamide]
≤ 500	CN(C)Cc1ccc(-c2ccc3c(c2)sc2c(C(N)=O)cnc(N)c23)cc1 [Example 21, 1-Amino-7-{4-[(dimethylamino)methyl]phenyl}[1]benzothieno[3,2-c]pyridine-4-carboxamide]
≤ 100	NC(=O)c1cnc(N)c2c1[nH]c1c(Cl)cccc12 [Example 25, 1-Amino-6-chloro-5H-pyrido[4,3-b]indole-4-carboxamide]
